From patent publication US9150528B2, “Compound having detrusor muscle-contracting activity and urethral sphincter muscle-relaxing activity” (ONO PHARMACEUTICAL CO., LTD., priority 2009, dated 2015)

What was measured:
[1] = system: spontaneously hypertensive rats; test: Blood pressure and heart rate measurement in hypertensive rats; format: in vivo, rat; details: continuous intravenous administration for 30 min
Method: The blood pressures and heart rates of male spontaneously hypertensive rats were measured. On the day of measurement, indwelling of catheters for blood pressure•heart rate measurement and subject substance administration was carried out under anesthesia with ether. The back of the neck of each rat was incised, a feeding catheter (Atom Medical Corporation) filled with heparinized physiological saline was introduced from the back of the neck; the catheter was inserted into the common carotid artery and internal jugular vein; and the surgical incision was closed. The measurements were conducted in a Bollmann cage under the conscious state and evaluations were carried out after confirming that the individual parameters were stabilized. After confirming the stabilization of blood pressure and heart rate, the test compound was continuously administered intravenously at a flow rate of 5 mL/kg/h for 30 min.
The catheter drawn from the back of the neck was connected to a pressure transducer (DX-200, NIHON KOHDEN CORP.), and the blood pressures and heart rates were measured using a blood pressure amplifier (Gould instrument). The blood pressures and heart rates were recorded on recording paper using a recorder (LINEARCORDER WR3320, GRAPHTEC). The blood pressures and heart rates were converted into values on the recording paper before administration and 2.5, 5, 10, 15, 30, 45 and 60 min after administration. For each individual, rates of increase and decrease in the parameters were evaluated relative to the value before administration (value at 0 min).

male rats = test: Digestive symptoms after repeated oral administration; format: in vivo, rat; details: 0.1 mg/kg oral, repeated for 4 days
Method: Using male rats, aged 6 weeks, general states of the rats were observed after repeating oral administration of the test compound at a dose of 0.1 mg/kg for 4 days. To a control, injectable water which is a medium was administered.

[2] = system: human lyophilized liver cells; test: Stability evaluation in lyophilized liver cells; format: in vitro ADME; details: 37° C.
Method: KHEM5100 medium which includes human lyophilized liver cells after dissolving (final concentration of living cells: 1×10^6 cells/mL) and the test compound (acetonitrile or methanol solution, final concentration≦1%) was incubated at 37° C. Immediately after reaction and with the passage of reaction time, some portions were sampled from the medium. The concentrations of the test compound in the samples were measured by LC/MS/MS. The residual rate of the test compound relative to immediately after reaction was calculated by the following equation: Residual rate=the concentration of the test compound in the sample after reaction/the concentration of the test compound in the sample immediately after reaction×100(%) The residual rates were plotted on a single logarithmic scale against reaction time to calculate loss rate constants. The test was repeated (n=2), and the obtained values were averaged.

[3] = system: urinary excretion dysfunction models; test: Urinary excretion dysfunction models, maximal urinary flow rate; format: in vivo; details: 60 ng/kg/h continuous intravenous, cynomolgus monkey urinary excretion dysfunction model
Source text: Urinary excretion dysfunction models were constructed in accordance with the following procedure. After anesthesia of cynomolgus monkeys, the region from the suprapubic area to the abdominal area was shaved, followed by fixing in a dorsal position. The shaved region was disinfected and the four legs were fixed. Using an electrosurgical knife, the skin region from the suprapubic area to the umbilical area and the peritoneal membrane were sequentially incised, followed by damage to the pelvic nerve and removal of the uterus. After the surgical operation, viccillin-containing physiological saline was added dropwise to the incised area. The peritoneal membrane and skin of the incised area were sutured with silk threads and disinfected. Viccillin was administered for 7 consecutive days after surgery. Meloxicam was administered once daily for 7 consecutive days to manage pain in the perioperative period.
The cynomolgus monkeys were seated on monkey chairs, followed by retention of the hands and legs with strings. Injectable water was administered orally, and physiological saline and the test compound (60 ng/kg/h) were continuously administered intravenously to allow urination freely. The maximal urinary flow rate was measured using a urine weighing sensor.

bladder detrusor = test: Contraction of isolated rat bladder strip specimens (Magnus system), KCl-induced contraction; format: cell-based; details: for Contractility of the bladder detrusor according to the compound concentration treated: rat bladder strip
Method: Rats were anesthetized with pentobarbital, followed by abdominal incision to remove the bladders and the urethras. The bladder bodies were cut in the longitudinal direction to prepare strip specimens with a size of about 10×3 mm. Additionally, each of the urethras was also cut in the longitudinal direction to prepare specimens with a size of about 10×3 mm. The prepared specimens were suspended in Krebs buffer (37° C., 5 mL), which was aerated with a mixed gas of 95% O2 and 5% CO2. The tension values of the specimens were measured using a Magnus system equipped with an isometric transducer and an amplifier, and the measured values were recorded on a computer via a data collection system.
The specimens were suspended with a load of about 0.5 g. More than 1 hr later, potassium chloride (100 mmol/L) was added and the maximal contraction response was observed. After washing with Krebs buffer, the specimens were suspended with a load of about 0.5 g for stabilization. A potassium chloride solution (7.5 mmol/L) was added to induce the contraction of the specimens. After the contraction-inducing response was stabilized, the test compound was added in a cumulative manner and the response was observed before and after the treatment with the drug.

digestive symptoms such as soft feces (male rats): No digestive symptoms | Residual rate ([2]; Reaction time 0 h): 100% | Residual rate ([2]; Reaction time 0.5 h): 111% | Residual rate ([2]; Reaction time 1 h): 101% | Residual rate ([2]; Reaction time 1 h, listed as compound 17): 100% | Residual rate ([2]; Reaction time 2 h): 82.2% | Residual rate ([2]; Reaction time 2 h, listed as compound 17): ≥ 80%
SMILES: C[C@@](O)(C/C=C/[C@H]1CCC(=O)[C@@H]1CCSc1nc(C(=O)O)cs1)CCC(F)=C(F)F [Compound 17, 2-[(2-{(1R,5R)-2-oxo-5-[(1E,4S)-7,8,8-trifluoro-4-hydroxy-4-methyl-1,7-octadien-1-yl]cyclopentyl}ethyl)thio]-1,3-thiazole-4-carboxylic acid]
effect on the blood pressure [1]: no effect | improvement in maximal urinary flow rate over the vehicle group [3]: 61% | Contractility of the bladder detrusor according to the compound concentration treated (bladder detrusor; 0 nmol/L): 3 % of 7.5 mmol/L KCl | Contractility of the bladder detrusor according to the compound concentration treated (bladder detrusor; 1 nmol/L): −2 % of 7.5 mmol/L KCl | Contractility of the bladder detrusor according to the compound concentration treated (bladder detrusor; 10 nmol/L): 23 % of 7.5 mmol/L KCl | Contractility of the bladder detrusor according to the compound concentration treated (bladder detrusor; 100 nmol/L): 100 % of 7.5 mmol/L KCl | Contractility of the bladder detrusor according to the compound concentration treated (bladder detrusor; 1 μmol/L): 180 % of 7.5 mmol/L KCl | Contractility of the bladder detrusor according to the compound concentration treated (bladder detrusor; 10 μmol/L): 259 % of 7.5 mmol/L KCl | effect on the bladder detrusor (bladder detrusor; summary in words of Table 1): contracted the bladder detrusor
